Literature values in patent publication US20140348873A1, “Urea-Silicone Gel for Hyperkeratosis Treatment” (PROFESSIONAL COMPOUNDING CENTERS OF AMERICA, priority 2013, published 2014).

Settings: general background statement; no experiment described

Q: Which “water content of the skin, level reached with urea” value does the source give for `NC(N)=O` [Urea] here?
A: 97.8%
